How the values were obtained:
Human BACE2 = biological target: T1, Human BACE2 (Homo sapiens, UniProt Q9Y5Z0); experiment: TR-FRET assay; format: biochemical; conditions: enzyme 2.7 μg/mL, substrate 100 nM, pH4.5
T1 construct: the soluble part of the human β-Secretase2 (AA1-AA473) was cloned using BACE2(1-473)-(AVT)-Fc-pDEST12.2 mammalian expression vector; AVT linker (C); made in house
T1 sequence (Q9Y5Z0 21-473): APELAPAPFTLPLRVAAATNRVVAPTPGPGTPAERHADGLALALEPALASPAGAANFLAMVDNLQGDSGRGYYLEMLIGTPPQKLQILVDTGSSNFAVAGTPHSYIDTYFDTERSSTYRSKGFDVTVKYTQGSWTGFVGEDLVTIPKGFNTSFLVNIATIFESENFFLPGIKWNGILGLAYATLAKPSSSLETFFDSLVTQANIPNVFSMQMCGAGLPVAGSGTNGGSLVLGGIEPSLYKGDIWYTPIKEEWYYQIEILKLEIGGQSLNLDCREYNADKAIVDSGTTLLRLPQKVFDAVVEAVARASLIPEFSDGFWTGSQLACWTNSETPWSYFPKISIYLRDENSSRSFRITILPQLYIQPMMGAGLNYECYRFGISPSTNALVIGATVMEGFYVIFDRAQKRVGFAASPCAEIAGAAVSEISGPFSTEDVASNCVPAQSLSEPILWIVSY

SH-SY5Y cells = experiment: sAPPβ release assay; conditions: Homo sapiens, SH-SY5Y, read-out: IC50 Cell (sAPPβ release, nM), SH-SY5Y cells, compounds incubated 16-17 h
Procedure: Cells were thawed and seeded at a concentration of around 10000 cells/well in DMEM/F-12 with Glutamax, 10% FCS and 1% non-essential amino acids to a 384-well tissue culture treated plate, 30 μL cell susp/well. The cell plates were then incubated for 7-24 h at 37° C., 5% CO2.
The cell medium was removed, followed by addition of 50 μL compound diluted in DMEM/F-12 with Glutamax, 10% FCS, 1% non-essential amino acids to a final cone of 0.5% DMSO. The compounds were incubated with the cells for 16-17 h (overnight) at 37° C., 5% CO2.
Meso Scale Discovery (MSD) plates were used for the detection of sAPP release. MSD sAPPβ plates were blocked in 1% BSA in Tris wash buffer for 1 h on shake at r.t. and washed 1 time in Tris wash buffer. […] The MSD plates were incubated with shaking at r.t. for 2 h and the media discarded. 10 μL detection antibody was added (1 nM) per well followed by incubation with shaking at r.t. for 2 h and then discarded. 35 μL Read Buffer was added per well and the plates were read in a Meso Scale Discovery SECTOR6000 Imager.

Human BACE1 = biological target: T2, Human BACE1 (Homo sapiens, UniProt P56817); experiment: Diluted TR-FRET assay; format: biochemical; conditions: 50 times less enzyme, 6.5 h reaction time at r.t.; read-out: IC50 BACE1 (dil. TR-FRET)
T2 construct: the soluble part of the human β-Secretase1 (AA1-AA460) was cloned using the BACE1(1-460)-(AVT)-Fc-pGEN-IRES-neo mammalian expression vector; AVT linker (C); made in house
T2 sequence (P56817 22-460): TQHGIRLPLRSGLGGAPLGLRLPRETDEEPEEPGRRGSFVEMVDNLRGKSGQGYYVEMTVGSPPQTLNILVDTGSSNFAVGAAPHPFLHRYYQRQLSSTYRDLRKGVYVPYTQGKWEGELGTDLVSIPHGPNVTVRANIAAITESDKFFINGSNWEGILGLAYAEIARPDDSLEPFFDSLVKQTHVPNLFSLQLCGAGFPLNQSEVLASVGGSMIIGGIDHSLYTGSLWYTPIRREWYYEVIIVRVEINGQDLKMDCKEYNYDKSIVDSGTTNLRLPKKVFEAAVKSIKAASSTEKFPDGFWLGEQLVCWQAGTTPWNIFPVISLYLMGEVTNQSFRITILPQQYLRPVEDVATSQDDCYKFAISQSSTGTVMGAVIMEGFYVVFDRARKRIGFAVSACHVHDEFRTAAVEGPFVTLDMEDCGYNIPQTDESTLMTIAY
Outline: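 Human BACE1 (residues 1-460) was fused to an IgG1 Fc affinity tag and stably expressed in HEK 293 cells. Using a Multidrop Combi, 7 μL enzyme was added to 0.8 μL compound in dimethylsulphoxide and incubated 10 minutes. Reactions were stopped with 5.5 μL NaOAC Stop solution (pH 9), and TR-FRET fluorescence was read on a Pherastar HTRF module.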

| SMILES | IC50 (Human BACE2) [nM] | IC50 (SH-SY5Y cells) [nM] | IC50 (Human BACE1) [nM] |
| --- | --- | --- | --- |
| [2H]C1([2H])OC(N)=NC12c1cc(-c3cncnc3)ccc1C[C@]21CC[C@@H](O)[C@H](C)C1 (stereo partly drawn) [Compound 57, (1R,3R,4R)-2″-amino-3-methyl-6′-(pyrimidin-5-yl)-3′H,5″H-dispiro[cyclohexane-1,2′-indene-1′,4″-oxazol]-5″,5″-d2-4-ol] | > 5000 | 94.8 | 341 |
| [2H]C1([2H])OC(N)=NC12c1cc(-c3cc(C#N)cc(OC)c3)ccc1C[C@]21CC[C@@H](O)[C@H](C)C1 (stereo partly drawn) [Compound 58, 3-((1R,3R,4R)-2″-amino-4-hydroxy-3-methyl-3′H,5″H-dispiro[cyclohexane-1,2′-indene-1′,4″-oxazol]-6′-yl-5″,5″-d2)-5-methoxybenzonitrile] | 139 | 102 | 301 |
| CO[C@H]1CC[C@]2(CC1)Cc1ccc(-c3cccnn3)cc1C21COC(N)=N1 (stereo partly drawn) [Compound 59, (1r,4r)-4-methoxy-6′-(pyridazin-3-yl)-3′H,5″H-dispiro[cyclohexane-1,2′-indene-1′,4″-oxazol]-2″-amine] | 4990 | 128 | 2250 |
| [2H]C1([2H])OC(N)=NC12c1cc(/C(C)=N/OCCC(F)(F)F)ccc1C[C@]21CC[C@@H](OC)CC1 (stereo partly drawn) [Compound 60, (E)-1-((1r,4r)-2″-amino-4-methoxy-3′H,5″H-dispiro[cyclohexane-1,2′-indene-1′,4″-oxazol]-6′-yl-5″,5″-d2)ethan-1-one O-(3,3,3-trifluoropropyl)oxime] | > 5000 | 206 | > 5000 |
| [2H]C1([2H])OC(N)=NC12c1cc(/C=N/OC3CCC3)ccc1C[C@]21CC[C@@H](OC)CC1 (stereo partly drawn) [Compound 61, (E)-2″-amino-4-methoxy-3′H,5″H-dispiro[cyclohexane-1,2′-indene-1′,4″-oxazole]-5″,5″-d2-6′-carbaldehyde O-cyclobutyl oxime] | 3440 | 207 | 1960 |
| CO[C@H]1CC[C@]2(CC1)Cc1ccc(-c3ccnnc3)cc1C21COC(N)=N1 (stereo partly drawn) [Compound 62, (1r,4r)-4-methoxy-6′-(pyridazin-4-yl)-3′H,5″H-dispiro[cyclohexane-1,2′-indene-1′,4″-oxazol]-2″-amine] | > 5000 | 250 | > 5000 |
| [2H]C1([2H])OC(N)=NC12c1cc(-c3cncnc3)ccc1C[C@@]21CC[C@H](O)[C@@H](C)C1 (stereo partly drawn) [Compound 63, (1S,3S,4S)-2″-amino-3-methyl-6′-(pyrimidin-5-yl)-3′H,5″H-dispiro[cyclohexane-1,2′-indene-1′,4″-oxazol]-5″,5″-d2-4-ol] | > 5000 | 266 | 1460 |
| CO[C@H]1CC[C@]2(CC1)Cc1ccccc1C21COC(N)=N1 (stereo partly drawn) [Compound 64, (1r,4r)-4-methoxy-3′H,5″H-dispiro[cyclohexane-1,2′-indene-1′,4″-oxazol]-2″-amine] | > 5000 | 307 | > 5000 |
| [2H]C1([2H])OC(N)=NC12c1cc(/C(C)=N/OCC)ccc1C[C@]21CC[C@@H](OC)CC1 (stereo partly drawn) [Compound 65, (E)-1-((1r,4r)-2″-amino-4-methoxy-3′H,5″H-dispiro[cyclohexane-1,2′-indene-1′,4″-oxazol]-6′-yl-5″,5″-d2)ethan-1-one O-ethyl oxime] | > 5000 | > 5000 | > 5000 |
| [2H]C1([2H])OC(N)=N[C@]12c1cc(-c3cnccn3)ccc1C[C@]21CC[C@@H](OC)[C@H](C)C1 [Compound 69, (1R,1′R,3R,4R)-4-methoxy-3-methyl-6′-(pyrazin-2-yl)-3′H,5″H-dispiro[cyclohexane-1,2′-indene-1′,4″-oxazol]-5″,5″-d2-2″-amine] | > 5000 | 17 | 423 |
| [2H]C1([2H])OC(N)=N[C@]12c1cc(-c3cncnc3C)ccc1C[C@@]21CC[C@H](OC)[C@@H](C)C1 [Compound 70, (1S,1′R,3S,4S)-4-methoxy-3-methyl-6′-(4-methylpyrimidin-5-yl)-3′H,5″H-dispiro[cyclohexane-1,2′-indene-1′,4″-oxazol]-5″,5″-d2-2″-amine] | > 5000 | 26.6 | 1130 |

Reference: patent US10053453B2, “Compounds and their use as BACE inhibitors” (AstraZeneca AB, priority 2014, dated 2018)
